Data published in patent US7642270B2, “5-oxo-5,8-dihydro-pyrido-pyrimidine as inhibitors of c-fms kinase” (Janssen Pharmaceutica N.V., priority 2005, dated 2010).

Target: c-fms (Homo sapiens, UniProt P07333)
Assay: c-fms autophosphorylation, fluorescence polarization competition immunoassay
Type: biochemical
Conditions: 10 nM c-fms, 1 mM ATP, 5 mM MgCl2, 45 min room temperature; averages of three independent measurements; read-out: c-fms Autophosphorylation IC50
Experimental: Autophosphorylation, Fluorescence Polarization Competition Immunoassay
The assay buffer used was 100 mM 4-(2-hydroxyethyl)piperazine 1-ethanesulfonic acid (HEPES), pH 7.5, 1 mM 1,4-dithio-DL-threitol (DTT), 0.01% (v/v) Tween-20. Compounds were diluted in assay buffer containing 4% dimethylsulfoxide (DMSO) just prior to the assay. […] The kinase reaction was initiated by adding 2 μL of 5 mM ATP (Sigma) in assay buffer. The final concentrations in the assay were 10 nM c-fms, 1 mM ATP, 5 mM MgCl2, 2% DMSO. Control reactions were ran in each plate: in positive and negative control wells, assay buffer (made 4% in DMSO) was substituted for the compound; in addition, positive control wells received 1.2 μL of 50 mM ethylenediaminetetraaceticacid (EDTA).
The plates were incubated at room temperature for 45 min. At the end of the incubation, the reaction was quenched with 1.2 μL of 50 mM EDTA (EDTA was not added to the positive control wells at this point; see above). Following a 5-min incubation, each well received 10 μL of a 1:1:3 mixture of anti-phosphotyrosine antibody, 10×, PTK green tracer, 10× (vortexed), FP dilution buffer, respectively (all from PanVera, cat. # P2837). The plate was covered, incubated for 30 min at room temperature and the fluorescence polarization was read on the Analyst.
The IC50 values shown in Table 1 are averages of three independent measurements.

c-fms, sequence (P07333 20-972): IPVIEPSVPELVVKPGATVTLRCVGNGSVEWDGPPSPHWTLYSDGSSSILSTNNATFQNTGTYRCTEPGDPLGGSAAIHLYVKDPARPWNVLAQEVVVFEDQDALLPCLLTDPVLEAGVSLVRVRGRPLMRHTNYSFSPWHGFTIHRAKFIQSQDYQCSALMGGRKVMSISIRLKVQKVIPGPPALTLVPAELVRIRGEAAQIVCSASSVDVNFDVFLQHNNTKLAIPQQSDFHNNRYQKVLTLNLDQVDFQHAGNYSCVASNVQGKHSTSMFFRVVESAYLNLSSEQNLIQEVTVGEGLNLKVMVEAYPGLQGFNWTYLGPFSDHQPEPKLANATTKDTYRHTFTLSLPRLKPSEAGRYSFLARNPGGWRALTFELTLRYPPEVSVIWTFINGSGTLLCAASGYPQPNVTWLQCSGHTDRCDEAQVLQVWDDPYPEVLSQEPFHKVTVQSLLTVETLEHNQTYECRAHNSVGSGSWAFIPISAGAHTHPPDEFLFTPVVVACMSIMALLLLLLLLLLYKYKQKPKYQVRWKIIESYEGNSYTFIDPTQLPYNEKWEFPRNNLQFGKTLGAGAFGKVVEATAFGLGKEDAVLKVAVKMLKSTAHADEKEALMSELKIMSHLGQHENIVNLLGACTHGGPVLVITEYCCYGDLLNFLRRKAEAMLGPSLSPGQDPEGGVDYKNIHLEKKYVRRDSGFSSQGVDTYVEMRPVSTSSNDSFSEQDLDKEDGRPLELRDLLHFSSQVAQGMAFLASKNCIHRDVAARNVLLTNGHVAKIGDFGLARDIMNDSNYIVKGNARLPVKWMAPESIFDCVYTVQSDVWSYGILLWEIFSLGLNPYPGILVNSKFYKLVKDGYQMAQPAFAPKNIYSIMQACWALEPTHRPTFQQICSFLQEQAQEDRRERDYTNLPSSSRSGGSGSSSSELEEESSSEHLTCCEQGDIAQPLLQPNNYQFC

IC50 | SMILES
11 nM | CNC(=O)c1cn(-c2ccc3c(c2)CCC3)c2nc(Nc3ccc(N4CCNCC4)cc3)ncc2c1=O [Cpd 41, 8-indan-5-yl-5-oxo-2-(4-piperazin-1-yl-phenylamino)-5,8-dihydro-pyrido[2,3-d]pyrimidine-6-carboxylic acid methyl amide]
110 nM | CCNC(=O)c1cn(-c2ccc3c(c2)CCC3)c2nc(Nc3cccc(C(=O)N(C)C)c3)ncc2c1=O [Cpd 81, 2-(3-Dimethylcarbamoyl-phenylamino)-8-indan-5-yl-5-oxo-5,8-dihydro-pyrido[2,3-d]pyrimidine-6-carboxylic acid ethylamide]
8 nM | CN1CCN(c2cccc(Nc3ncc4c(=O)c(C(N)=O)cn(-c5ccc6c(c5)CCC6)c4n3)c2)CC1 [Cpd 37, 8-Indan-5-yl-2-[3-(4-methyl-piperazin-1-yl)-phenylamino]-5-oxo-5,8-dihydro-pyrido[2,3-d]pyrimidine-6-carboxylic acid amide]
1100 nM | CN(C)CC(=O)N1CCC(c2ccc(Nc3ncc4c(=O)c(C(N)=O)cn(-c5ccc6c(c5)CCC6)c4n3)cc2)CC1 [Cpd 70, 2-{4-[1-(2-Dimethylamino-acetyl)-piperidin-4-yl]-phenylamino}-8-indan-5-yl-5-oxo-5,8-dihydro-pyrido[2,3-d]pyrimidine-6-carboxylic acid amide]
33 nM | CCNC(=O)c1cn(-c2ccc3c(c2)CCC3)c2nc(Nc3ccc(CCN4CCOCC4)cc3)ncc2c1=O [Cpd 29, 8-Indan-5-yl-2-[4-(2-morpholin-4-yl-ethyl)-phenylamino]-5-oxo-5,8-dihydro-pyrido[2,3-d]pyrimidine-6-carboxylic acid ethyl amide]
25 nM | CCNC(=O)c1cn(-c2ccc3c(c2)CCC3)c2nc(Nc3ccc(C4CCNCC4)cc3)ncc2c1=O [Cpd 51, 8-Indan-5-yl-5-oxo-2-(4-piperidin-4-yl-phenylamino)-5,8-dihydro-pyrido[2,3-d]pyrimidine-6-carboxylic acid ethyl amide]
21 nM | CN1CCN(c2cccc(Nc3ncc4c(=O)c(C(N)=O)cn(C5CCCCC5)c4n3)c2)CC1 [Cpd 63, 8-Cyclohexyl-2-[3-(4-methyl-piperazin-1-yl)-phenylamino]-5-oxo-5,8-dihydro-pyrido[2,3-d]pyrimidine-6-carboxylic acid amide]
19 nM | NC(=O)c1cn(-c2ccc3c(c2)CCC3)c2nc(Nc3ccc(N4CCOCC4)cc3)ncc2c1=O [Cpd 14, 8-indan-5-yl-2-(4-morpholin-4-yl-phenylamino)-5-oxo-5,8-dihydro-pyrido[2,3-d]pyrimidine-6-carboxylic acid amide]
110 nM | CCNC(=O)c1cn(C2CCCCC2)c2nc(Nc3cccc(N4CCN(C)CC4)c3)ncc2c1=O [Cpd 65, 8-Cyclohexyl-2-[3-(4-methyl-piperazin-1-yl)-phenylamino]-5-oxo-5,8-dihydro-pyrido[2,3-d]pyrimidine-6-carboxylic acid ethyl amide]
56 nM | CN1CCN(c2ccc(Nc3ncc4c(=O)c(C(N)=O)cn(C5CCCC5)c4n3)cc2)CC1 [Cpd 19, 8-Cyclopentyl-2-[4-(4-methyl-piperazin-1-yl)-phenylamino]-5-oxo-5,8-dihydro-pyrido[2,3-d]pyrimidine-6-carboxylic acid amide]
> 1000 nM | CCNC(=O)c1cn(-c2ccc3c(c2)CCC3)c2nc(Nc3ccc(CCS(=O)(=O)NC(C)C)cc3)ncc2c1=O [Cpd 34, 8-Indan-5-yl-2-[4-(2-isopropylsulfamoyl-ethyl)-phenylamino]-5-oxo-5,8-dihydro-pyrido[2,3-d]pyrimidine-6-carboxylic acid ethyl amide]
120 nM | CC(C)NS(=O)(=O)CCc1ccc(Nc2ncc3c(=O)c(C(N)=O)cn(C4CCCCC4)c3n2)cc1 [Cpd 66, 8-Cyclohexyl-2-[4-(2-isopropylsulfamoyl-ethyl)-phenylamino]-5-oxo-5,8-dihydro-pyrido[2,3-d]pyrimidine-6-carboxylic acid amide]
